Measured values as given in publication PMC10141580, “Cyclic Dichalcogenides Extend the Reach of Bioreductive Prodrugs to Harness Thiol/Disulfide Oxidoreductases: Applications to seco-Duocarmycins Targeting the Thioredoxin System” (ACS Central Science, 2023).
Like-named read-outs stand apart in the source and are kept apart here.

System: panel of 140 standard cancer cell lines
Assay: ProliFiler-140 cancer cell line screen (CellTiterGlo, 72 h)
Assay type: cell-based
Description: Incubations were performed for 72 h before automated viability readout with CellTiterGlo (Figure 8).
End of Figure S11 (part 5 of 5): ProliFiler-140 cancer cell line screening for cytotoxicity of the prodrugs.
8-data-point dose response curves from CellTiter-Glo® viability readout.
ProliFiler-140 cell line panel part V

`COc1cc2cc(C(=O)N3C[C@@H](CCl)c4c3cc(OC(=O)N3CCN(C(=O)CCC(=O)N5CCN(C)CC5)[C@H]5CSSC[C@H]53)c3ccccc43)[nH]c2c(OC)c1OC` [P-SS66C-CBI-TMI] gave an IC50 (read-out: IC50 [M] (ProliFiler-140), BxPC-3 (Pancreas)) of 4.6e-08 M, an IC50 (read-out: IC50 [M] (ProliFiler-140), COR-L279 (Lung)) of 7.23e-09 M and an IC50 (read-out: IC50 [M] (ProliFiler-140), COV434 (Ovary)) of 1.48e-08 M. The IC50 (read-out: IC50 [M] (ProliFiler-140), Calu-6 (Lung)) was 5.9e-08 M, the IC50 (read-out: IC50 [M] (ProliFiler-140), Colo 205 (Colon)) was 8.61e-08 M and the IC50 (read-out: IC50 [M] (ProliFiler-140), DU-145 (Prostate)) was 1.62e-08 M. The IC50 (read-out: IC50 [M] (ProliFiler-140), EFM-19 (Breast)) was 3.12e-07 M, the IC50 (read-out: IC50 [M] (ProliFiler-140), EFO-27 (Ovary)) was 6.19e-08 M and the IC50 (read-out: IC50 [M] (ProliFiler-140), EPLC-272H (Lung)) was 4.6e-08 M. For the same molecule, the IC50 (read-out: IC50 [M] (ProliFiler-140), H460 (Lung)) was 5.51e-09 M, the IC50 (read-out: IC50 [M] (ProliFiler-140), H1299 (Lung)) was 5.4e-08 M and the IC50 (read-out: IC50 [M] (ProliFiler-140), H2228 (Lung)) was 4.5e-08 M. It also gave an IC50 (read-out: IC50 [M] (ProliFiler-140), HCC202 (Breast)) of 9.13e-08 M, an IC50 (read-out: IC50 [M] (ProliFiler-140), HCC827 (Lung)) of 9.11e-08 M and an IC50 (read-out: IC50 [M] (ProliFiler-140), HEC-1-B (Endometrium)) of 3.99e-07 M. The IC50 (read-out: IC50 [M] (ProliFiler-140), HL-60 (Blood)) was 1.52e-08 M, the IC50 (read-out: IC50 [M] (ProliFiler-140), HT-29 (Colon)) was 1.05e-07 M and the IC50 (read-out: IC50 [M] (ProliFiler-140), HT-1080 (Fibrosarcoma)) was 2.1e-08 M. For the same molecule, the IC50 (read-out: IC50 [M] (ProliFiler-140), HeLa (Ovary)) was 9.9e-09 M, the IC50 (read-out: IC50 [M] (ProliFiler-140), Hep3B2.1-7 (Liver)) was 1.72e-07 M and the IC50 (read-out: IC50 [M] (ProliFiler-140), Hs 746T (Stomach)) was 7.52e-08 M. For the same molecule, the IC50 (read-out: IC50 [M] (ProliFiler-140), Hutu 80 (Duodenum)) was 9.6e-09 M, the IC50 (read-out: IC50 [M] (ProliFiler-140), Ishikawa (Endometrium)) was 3.84e-09 M and the IC50 (read-out: IC50 [M] (ProliFiler-140), J82 (Bladder)) was 9.6e-08 M. For the same molecule, the IC50 (read-out: IC50 [M] (ProliFiler-140), JIMT-1 (Breast)) was 1.04e-07 M, the IC50 (read-out: IC50 [M] (ProliFiler-140), JVM-3 (Blood)) was 3.4e-09 M and the IC50 (read-out: IC50 [M] (ProliFiler-140), Jurkat (Blood)) was 6.2e-09 M. The IC50 (read-out: IC50 [M] (ProliFiler-140), K562 (Blood)) was 1.29e-07 M, the IC50 (read-out: IC50 [M] (ProliFiler-140), KG-1 (Blood)) was 1.9e-07 M and the IC50 (read-out: IC50 [M] (ProliFiler-140), LOU-NH91 (Lung)) was 3.45e-08 M. The IC50 (read-out: IC50 [M] (ProliFiler-140), LP-1 (Blood)) was 1.04e-07 M, the IC50 (read-out: IC50 [M] (ProliFiler-140), LnCap (Prostate)) was 2.75e-08 M and the IC50 (read-out: IC50 [M] (ProliFiler-140), MCF-7 (Breast)) was 3.05e-08 M. It also gave an IC50 (read-out: IC50 [M] (ProliFiler-140), MDA-MB-468 (Breast)) of 1.87e-08 M, an IC50 (read-out: IC50 [M] (ProliFiler-140), MEC-1 (Blood)) of 1.08e-08 M and an IC50 (read-out: IC50 [M] (ProliFiler-140), MKN-1 (Stomach)) of 1.38e-07 M. It also gave an IC50 (read-out: IC50 [M] (ProliFiler-140), MOLM-13 (Blood)) of 5.25e-09 M, an IC50 (read-out: IC50 [M] (ProliFiler-140), MOLT-4 (Blood)) of 8.62e-09 M and an IC50 (read-out: IC50 [M] (ProliFiler-140), MV4-11 (Blood)) of 1.54e-09 M. The IC50 (read-out: IC50 [M] (ProliFiler-140), NALM-6 (Blood)) was 2.5e-09 M, the IC50 (read-out: IC50 [M] (ProliFiler-140), NCI-H82 (Lung)) was 8.78e-08 M and the IC50 (read-out: IC50 [M] (ProliFiler-140), NCI-H292 (Lung)) was 3.77e-08 M. It also gave an IC50 (read-out: IC50 [M] (ProliFiler-140), NCI-H838 (Lung)) of 7.44e-08 M, an IC50 (read-out: IC50 [M] (ProliFiler-140), NCI-H1048 (Lung)) of 3.97e-09 M and an IC50 (read-out: IC50 [M] (ProliFiler-140), NCI-H1563 (Lung)) of 1.14e-07 M. For the same molecule, the IC50 (read-out: IC50 [M] (ProliFiler-140), NCI-H1573 (Lung)) was 8.97e-08 M, the IC50 (read-out: IC50 [M] (ProliFiler-140), NCI-H1581 (Lung)) was 4.7e-08 M and the IC50 (read-out: IC50 [M] (ProliFiler-140), NCI-H1703 (Lung)) was 5.11e-08 M. For the same molecule, the IC50 (read-out: IC50 [M] (ProliFiler-140), NCI-H2110 (Lung)) was 1.81e-08 M, the IC50 (read-out: IC50 [M] (ProliFiler-140), NCI-H2286 (Lung)) was 1.67e-08 M and the IC50 (read-out: IC50 [M] (ProliFiler-140), NCI-N87 (Stomach)) was 7.55e-08 M. The IC50 (read-out: IC50 [M] (ProliFiler-140), OCI-AML3 (Blood)) was 1.32e-08 M, the IC50 (read-out: IC50 [M] (ProliFiler-140), OCI-AML5 (Blood)) was 5.98e-09 M and the IC50 (read-out: IC50 [M] (ProliFiler-140), OCI-LY19 (Blood)) was 2.8e-09 M. The IC50 (read-out: IC50 [M] (ProliFiler-140), OPM-2 (Blood)) was 2.6e-08 M, the IC50 (read-out: IC50 [M] (ProliFiler-140), OV56 (Ovary)) was 7.2e-08 M and the IC50 (read-out: IC50 [M] (ProliFiler-140), OVCAR-3 (Ovary)) was 7.88e-08 M. It also gave an IC50 (read-out: IC50 [M] (ProliFiler-140), OVK18 (Ovary)) of 4.6e-08 M, an IC50 (read-out: IC50 [M] (ProliFiler-140), P31/FUJ (Blood)) of 2.25e-08 M and an IC50 (read-out: IC50 [M] (ProliFiler-140), PC3 (Prostate)) of 4e-08 M. It also gave an IC50 (read-out: IC50 [M] (ProliFiler-140), PC-9 (Lung)) of 1.41e-08 M, an IC50 (read-out: IC50 [M] (ProliFiler-140), RERF-LC-Ad2 (Lung)) of 1.42e-07 M and an IC50 (read-out: IC50 [M] (ProliFiler-140), RKO (Colon)) of 2.1e-08 M. For the same molecule, the IC50 (read-out: IC50 [M] (ProliFiler-140), SCH (Stomach)) was 1.52e-08 M, the IC50 (read-out: IC50 [M] (ProliFiler-140), SCLC-21H (Lung)) was 2.6e-08 M and the IC50 (read-out: IC50 [M] (ProliFiler-140), SK-ES-1 (Bone)) was 2.7e-09 M. The IC50 (read-out: IC50 [M] (ProliFiler-140), SK-MEL-3 (Skin)) was 1.55e-07 M, the IC50 (read-out: IC50 [M] (ProliFiler-140), SK-N-MC (Brain)) was 1.61e-09 M and the IC50 (read-out: IC50 [M] (ProliFiler-140), SK-N-SH (Brain)) was 1.15e-07 M. It also gave an IC50 (read-out: IC50 [M] (ProliFiler-140), SK-OV3 (Ovary)) of 3.7e-08 M, an IC50 (read-out: IC50 [M] (ProliFiler-140), SNU-1 (Stomach)) of 2.27e-08 M and an IC50 (read-out: IC50 [M] (ProliFiler-140), SNU-216 (Stomach)) of 9.2e-08 M. The IC50 (read-out: IC50 [M] (ProliFiler-140), SU-DHL-5 (Blood)) was 2.55e-09 M, the IC50 (read-out: IC50 [M] (ProliFiler-140), SW480 (Colon)) was 5.5e-08 M and the IC50 (read-out: IC50 [M] (ProliFiler-140), SW-1783 (Brain)) was 4.8e-08 M. The IC50 (read-out: IC50 [M] (ProliFiler-140), Saos-2 EC (Bone)) was 6.6e-08 M, the IC50 (read-out: IC50 [M] (ProliFiler-140), T98G (Brain)) was 8.1e-08 M and the IC50 (read-out: IC50 [M] (ProliFiler-140), T-47D (Breast)) was 9.75e-08 M. It also gave an IC50 (read-out: IC50 [M] (ProliFiler-140), U118MG (Brain)) of 1.9e-07 M, an IC50 (read-out: IC50 [M] (ProliFiler-140), U251MG (Brain)) of 1.18e-07 M and an IC50 (read-out: IC50 [M] (ProliFiler-140), U-266 (Blood)) of 9.4e-09 M. For the same molecule, the IC50 (read-out: antiproliferative IC50 range, range over 140 cell lines) was 1e-09 to 1e-07 M and the Reductive Activation Index (span over ProliFiler-140 cell lines) was “up to 30 fold”.
